How the values were obtained:
[1] = target: T1, avidin (Gallus gallus, UniProt P02701); conditions: non-covalent; cited from earlier work
T1 construct: The avidin is a tetrameric glycoprotein isolated from egg-white; from tissue; host or cells: egg-white

[2] = target: T2, tetR of class C (Escherichia coli, UniProt P03039); assay type: binding, E. Coli C600; conditions: 25 ppb in honey, read with the naked eye
T2 construct: two primers have been selected for amplification by PCR of the gene which has then been cloned in a pet12a-expression plasmid; made in house; host or cells: E. coli HB101 carrying pT7po123; expression plasmid pet12a
Description: In the example showing the measurement of the concentration based on samples of honey, one unpurified part of serum obtained above is placed in the presence of one part of tetR receptor obtained above in 1.1.1, 15 parts of A-protein marked by means of particles of colloidal gold of 40 nm and one DO at 500 nm of 10 (available from Unisensor S.A., Liege, Belgium) and 20 parts of lyophilisation buffer (Tris 10 mM, pH 8, BSA 5 mg/ml, sucrose 10 g/l). This mixture is lyophilised for 20 hours.
To 1 gram of honey are added 3 ml of dilution buffer (for 1 litre, 2.73 g of Na2HPO4.2H2O, 1.65 g of citric acid, 7 g of BSA and 2.5 g of Tween-20, pH 5) and the solutin is stirred vigorously so as to obtain a homogeneous solution. 200 μl of this dilution of the sample of honey are then incubated in the presence of the lyophilisate prepared above (see Point 1.1.2.2). After 10 minutes of incubation at ambient temperature (±20° C.), the analysis strip described above at 1.3 is immersed in the solution. The final interpretation is made with the naked eye, after 15 minutes of incubation at ambient temperature.

[3] = target: MetJ (Escherichia coli, UniProt P0A8U6); conditions: in the presence of the co-repressor; cited from earlier work
Chain of MetJ (P0A8U6 2-105): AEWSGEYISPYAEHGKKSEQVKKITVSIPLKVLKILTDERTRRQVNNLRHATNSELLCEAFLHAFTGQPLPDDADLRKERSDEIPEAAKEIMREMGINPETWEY

T1 sequence (P02701 25-152): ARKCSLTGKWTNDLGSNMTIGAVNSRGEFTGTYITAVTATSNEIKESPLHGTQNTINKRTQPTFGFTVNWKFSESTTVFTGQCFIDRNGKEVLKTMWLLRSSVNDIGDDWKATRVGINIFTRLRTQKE
T2 sequence (P03039 whole entry): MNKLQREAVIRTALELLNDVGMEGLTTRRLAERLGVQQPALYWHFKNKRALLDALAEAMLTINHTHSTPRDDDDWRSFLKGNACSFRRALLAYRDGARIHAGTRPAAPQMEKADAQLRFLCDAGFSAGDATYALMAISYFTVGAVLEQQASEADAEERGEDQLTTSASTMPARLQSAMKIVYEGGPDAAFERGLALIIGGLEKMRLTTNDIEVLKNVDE

**Q.** Which “affinity of avidin sub-unit for biotin (Ka)” value [1] does the source give for `O=C(O)CCCC[C@@H]1SC[C@@H]2NC(=O)N[C@@H]21` [biotin] here?
**A.** Its value is 10^15 M^−1.

**Q.** With `CN(C)[C@@H]1C(O)=C(C(N)=O)C(=O)[C@@]2(O)C(O)=C3C(=O)c4c(O)ccc(Cl)c4[C@@H](O)[C@H]3C[C@@H]12` [demedocycline] as the compound, how does the “test result (test signal lower than control signal = positive)” value [2] read?
**A.** The value was “positive result”.

**Q.** With `C[S+](CC[C@H](N)C(=O)[O-])C[C@H]1O[C@@H](n2cnc3c(N)ncnc32)[C@H](O)[C@@H]1O` (stereo partly drawn) [s-adenosylmethionine] as the compound, how does the “increase of MetJ affinity for DNA” value [3] read?
**A.** Its value is “more than 1,000 times”.

Reference: patent US7935806B2, “Method for performing in vitro diagnosis using gene regulation mechanisms and corresponding diagnosis kit” (Unisensor S.A., priority 2001, dated 2011)
